# Test results reported in US7825151B2, “Hexahydro-cyclooctyl pyrazole cannabinoid modulators” (priority 2005, dated 2010).
# Columns and labels:
# human CB1 receptor = target: T1, human CB1 receptor (Homo sapiens, UniProt P21554); experiment: Functional cell-based CRE β-gal assay, CB1 (adenylate cyclase activity); conditions: single test concentration 1 μM (footnote 2)
# T1 construct: expressed in transfected cells; host or cells: SK-N-MC cells, stably transfected with pcDNA3 CB-1 (human)
# From the text: (§1) The CB1 and CB2 receptors are G-protein coupled receptors (GPCR), which influence cell function via the Gi-protein. These receptors modulate the activity of intracellular adenylate cyclase, which in turn produces the intracellular signal messenger cyclic-AMP (cAMP).
# (§2) At baseline, or during non-ligand bound conditions, these receptors are constitutively active and tonically suppress adenylate cyclase activity. The binding of an agonist causes further receptor activation and produces additional suppression of adenylate cyclase activity. The binding of an inverse agonist inhibits the constitutive activity of the receptors and results in an increase in adenylate cyclase activity.
# (§3) By monitoring intracellular adenylate cyclase activity, the ability of compounds to act as agonists or inverse agonists can be determined.
# (§4) Test compounds were evaluated in SK-N-MC cells which, using standard transfection procedures, were stably transfected with human cDNA for pcDNA3-CRE β-gal and pcDNA3 CB1 receptor (human) or pcDNA3 CB2 receptor (human). By expressing CRE β-gal, the cells produced β-galactosidase in response to CRE promoter activation by cAMP. Cells expressing CRE β-gal and either the human CB1 or CB2 receptor will produce less β-galactosidase when treated with a CB1/CB2 agonist and will produce more β-galactosidase when treated with a CB1/CB2 inverse agonist.
# (§5) The cells were grown in 96-well plates under standard cell culture conditions at 37° C. in a 5% CO2 atmosphere. After 3 days, the media was removed and a test compound in media (wherein the media was supplemented with 2 mM L-glutamine, […] sodium pyruvate, 0.1% low fatty acid FBS (fetal bovine serum) and antibiotics) was added to the cell. The plates were incubated for 30 minutes at 37° C. and the plate cells were then treated with forskolin over a 4-6 hour period, then washed and lysed. The β-galactosidase activity was quantitated using commercially available kit reagents (Promega Corp. Madison, Wis.) and a Vmax Plate Reader (Molecular Devices, Inc).
# (§6) The change in β-galactosidase activity was determined by setting a vehicle treated cell's activity value at 100% and expressing the β-galactosidase activity measured in a corresponding compound treated cell as a percent of the vehicle treated cell activity.
# The EC50 value for functional activity for compounds tested was calculated by linear regression and was obtained from studies in which varying compound concentrations were used. Data provided for certain compounds is represented by percent change (%) in functional activity at a single test concentration: ^(1)10 μM and ^(2)1 μM.
# CB2 receptor = target: T2, CB2 receptor (Homo sapiens, UniProt P34972); experiment: Functional cell-based CRE β-gal assay, CB2 (adenylate cyclase activity)
# T2 construct: expressed in transfected cells; host or cells: SK-N-MC cells, stably transfected with pcDNA3 CB-2 (human)
# From the text: as §1, §2, §3, §4, §5
# For cells expressing CRE β-gal and the CB2 receptor, CB2 agonists reduced β-galactosidase activity in a dose-dependent manner and CB2 inverse agonists increase β-galactosidase activity in a dose-dependent manner.
# as §6
# The EC50 value for functional activity for compounds tested was calculated by linear regression and was obtained from studies in which varying compound concentrations were used.
# The value of 29% for Compound 5 represents change in functional activity and was obtained from a study in which one compound concentration was used.
# DSS induced colitis = experiment: Dextran sulfate sodium (DSS) induced colitis model; format: in vivo, Female Balb/c mice; conditions: for % Inh (Macro), % inhibition of colitis: macroscopic score
# From the text: In the distal colon, the DSS colitis model is characterized by a discontinuous pattern of mucosal epithelial damage, infiltration of inflammatory cells (including macrophages, neutrophils and lymphocytes) into the mucosa and submucosa, […] wet weight of the colon, shrinkage of the colon length and diarrhea (see, Blumberg R. S., Saubermann L. J. and Strober W., Animal models of mucosal inflammation and their relation to human inflammatory bowel disease, Current Opinion in Immunology, 1999, Vol. 11: 648-656; Egger B., Bajaj-Elliott M., MacDonald T. T., Inglin R., Eysselein, V. E. and Buchler M. W., Characterization of acute murine dextran sodium sulphate colitis: Cytokine profile and dose dependency, Digestion, 2000, Vol. 62: 240-248; Stevceva L., Pavli P., Husband A. J. and Doe, W. F., The inflammatory infiltrate in the acute stage of the dextran sulphate sodium induced colitis: B cell response differs depending on the percentage of DSS used to induce it, BMC Clinical Pathology, 2001, Vol 1: 3-13; and Diaz-Granados, Howe K., Lu J. and McKay D. M., Dextran sulfate sodium-induced colonic histopathology, but not altered epithelial ion transport, is reduced by inhibition of phosphodiesterase activity, Amer. J. Pathology, 2000, Vol. 156: 2169-2177).
# Female Balb/c mice (Taconic Farms, Germantown, N.Y.) (10-13 weeks old) were provided with a solution of 5% DSS (45 kD molecular weight, ICN chemicals, Newport, Calif.) in tap water ad libitum over a 7-day period. The DSS solution was replenished daily and the amount consumed was measured.
# The mice (10 per treatment group) were orally administered a test compound on the day of colitis induction and then daily thereafter.
# Six days after the initial DSS administration, the last test compound dose was administered.
# Seven days after the initial DSS administration, the animals were sacrificed. The colons were resected, examined for signs of inflammation, weighed after removing fecal contents and the length from the aboral end of the cecum to the anus was measured. The fecal contents were examined for signs of diarrhea. The distal colon between the 1st and the 4th centimeter was removed and placed in 10% neutral buffered formalin for histological analysis.
# The macroscopic observations of colon inflammation (a measure of colon damage), colon length and stool consistency and appearance were assigned a score and used to evaluate colitis severity.
# The three observation scores for each colon were combined, whereby a combined score of 0 represents a normal colon and a combined score of 11 represents a maximally affected colon. Statistical analyses were performed in Graphpad Prism 4.0 using ANOVA.
# Histological analyses of tissues consisted of staining paraffin-embedded tissue sections with hematoxylin-eosin dye. The tissues were examined using light microscopy by an investigator who was blinded to the sample groups.
# The microscopic observations of epithelial damage, cellular infiltration and damage or alteration of smooth muscle architecture (a measure of muscle damage) were assigned a score and used to evaluate colitis severity.
# The scores for each colon were combined, whereby a combined score of 0 represents a normal colon and a combined score of 9 represents a maximally affected colon. […]
# The Macroscopic Score and Microscopic Score results for each treatment group were each combined into a mean score and expressed as % inhibition of colitis (% Inh). […] ND represents Not Determined.
# T2 sequence (P34972 whole entry): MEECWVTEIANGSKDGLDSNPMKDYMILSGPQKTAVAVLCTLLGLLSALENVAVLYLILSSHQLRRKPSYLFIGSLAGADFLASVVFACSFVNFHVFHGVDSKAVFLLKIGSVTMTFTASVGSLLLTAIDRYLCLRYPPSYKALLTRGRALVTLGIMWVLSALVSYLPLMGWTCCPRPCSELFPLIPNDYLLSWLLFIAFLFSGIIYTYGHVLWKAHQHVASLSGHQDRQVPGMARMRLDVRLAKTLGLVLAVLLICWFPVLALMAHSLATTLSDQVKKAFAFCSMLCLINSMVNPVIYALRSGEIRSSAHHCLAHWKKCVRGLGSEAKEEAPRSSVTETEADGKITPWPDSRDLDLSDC
# T1 sequence (P21554 whole entry): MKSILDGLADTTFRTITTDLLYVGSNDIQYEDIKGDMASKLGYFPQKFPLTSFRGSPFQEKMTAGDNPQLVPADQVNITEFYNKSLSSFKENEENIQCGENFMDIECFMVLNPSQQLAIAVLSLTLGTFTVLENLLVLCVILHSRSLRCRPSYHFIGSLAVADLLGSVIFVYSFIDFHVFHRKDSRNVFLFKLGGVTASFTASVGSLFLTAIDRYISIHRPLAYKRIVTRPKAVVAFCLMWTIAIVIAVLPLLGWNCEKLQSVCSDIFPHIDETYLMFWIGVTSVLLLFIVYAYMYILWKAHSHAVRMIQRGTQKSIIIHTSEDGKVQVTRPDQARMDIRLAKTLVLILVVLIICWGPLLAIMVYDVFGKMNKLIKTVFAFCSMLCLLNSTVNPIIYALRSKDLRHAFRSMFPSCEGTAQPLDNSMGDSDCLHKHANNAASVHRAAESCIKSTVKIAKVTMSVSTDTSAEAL
structure (smiles),measurement,setting,value
"O=C(NCC12CC3CC(CC(C3)C1)C2)c1nn(C2CCCCC2)c2c1CCCCCC2 [Cpd 2, 1-cyclohexyl-4,5,6,7,8,9-hexahydro-1H-cyclooctapyrazole-3-carboxylic acid (adamantan-1-ylmethyl)-amide]",CB1 receptor percent change in functional activity,human CB1 receptor,^(2)−71%
same,EC50,CB2 receptor,6.6 nM
same,"% Inh (Macro), % inhibition of colitis",DSS induced colitis; 1 mg/kg oral daily,−4.3 ± 12.9%
same,"% Inh (Macro), % inhibition of colitis",DSS induced colitis; 5 mg/kg oral daily,21.9 ± 15.2%
same,"% Inh (Micro), % inhibition of colitis","DSS induced colitis; 5 mg/kg oral daily, microscopic score",75.7 ± 8.9%
same,"% Inh (Macro), % inhibition of colitis",DSS induced colitis; 10 mg/kg oral daily,50.5 ± 9.0%
same,"% Inh (Macro), % inhibition of colitis",DSS induced colitis; 20 mg/kg oral daily,31.6 ± 8.5%
